Source: patent US20230085307A1, “PYRIDAZINONE COMPOUND AND HERBICIDE” (NISSAN CHEMICAL CORPORATION, priority 2019, published 2023)

Legend:
late watergrass = test: Test Example 2: herbicidal activity, application during weed generation under submerged conditions (Table 17, symbol A); format: in vivo, late watergrass (Echinochloa oryzicola); settings: AAH 320 g/ha; application during weed generation, submerged conditions
How it was run: (§1)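 Wagner pot, alluvial soil, 4 cm flood; mixed sowing of all species; greenhouse 25° C.–30° C. Emulsifiable formulation, water-diluted to predetermined dose, applied to paddy water at 1–2 leaf stage. Effect rated at 3 wk using the earlier test's scoring criteria.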

Japanese bulrush = test: Test Example 2: herbicidal activity, application during weed generation under submerged conditions (Table 17, symbol B); format: in vivo, Japanese bulrush (Schoenoplectus juncoides); settings: AAH 320 g/ha; application during weed generation, submerged conditions
How it was run: as §1

barnyard grass [1] = test: Test Example 3: herbicidal effect by foliage application, Wagner pot (Table 18, symbol H); format: in vivo, barnyard grass (Echinochloa crus-galli); settings: 320 g/ha
How it was run: (§2)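 Plants were sown in alluvial soil held under 0.1–0.5 cm standing water and grown 14 days in a greenhouse at 25–30 °C. An emulsifiable formulation, water-diluted to the set dose, was then sprayed onto the foliage, and effects were scored three weeks later using previously defined criteria.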

rice flat sedge = test: Test Example 3: herbicidal effect by foliage application, Wagner pot (Table 18, symbol E); format: in vivo, rice flat sedge (Cyperus iria); settings: 320 g/ha
How it was run: as §2

southern crabgrass [2] = test: Test Example 4: herbicidal effect by soil treatment (Table 19, symbol F); format: in vivo, southern crabgrass (Digitaria ciliaris); settings: amount of applied herbicide 320 g/ha
How it was run: (§3)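 Pre-emergence style soil spray: seeds under ~1.5 cm sterilized diluvial soil received a uniform coat of emulsion diluted to the predetermined herbicide amount. Greenhouse 25–30° C; readout at week three on previously defined criteria.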

green foxtail = test: Test Example 4: herbicidal effect by soil treatment (Table 19, symbol G); format: in vivo, green foxtail (Setaria viridis); settings: amount of applied herbicide 320 g/ha
How it was run: as §3

barnyard grass [3] = test: Test Example 4: herbicidal effect by soil treatment (Table 19, symbol H); format: in vivo, barnyard grass (Echinochloa crus-galli); settings: amount of applied herbicide 320 g/ha
How it was run: as §3

wild oat [4] = test: Test Example 4: herbicidal effect by soil treatment (Table 19, symbol I); format: in vivo, wild oat (Avena fatua); settings: amount of applied herbicide 320 g/ha
How it was run: as §3

Italian ryegrass [5] = test: Test Example 4: herbicidal effect by soil treatment (Table 19, symbol K); format: in vivo, Italian ryegrass (Lolium multiflorum); settings: amount of applied herbicide 320 g/ha
How it was run: as §3

velvetleaf = test: Test Example 4: herbicidal effect by soil treatment (Table 19, symbol M); format: in vivo, velvetleaf (Abutilon theophrasti); settings: amount of applied herbicide 320 g/ha
How it was run: as §3

redroot pigweed [6] = test: Test Example 4: herbicidal effect by soil treatment (Table 19, symbol N); format: in vivo, redroot pigweed (Amaranthus retroflexus); settings: amount of applied herbicide 320 g/ha
How it was run: as §3

lambsquarters [7] = test: Test Example 4: herbicidal effect by soil treatment (Table 19, symbol O); format: in vivo, lambsquarters (Chenopodium album); settings: amount of applied herbicide 320 g/ha
How it was run: as §3

chickweed = test: Test Example 4: herbicidal effect by soil treatment (Table 19, symbol P); format: in vivo, common chickweed (Stellaria media); settings: amount of applied herbicide 320 g/ha
How it was run: as §3

southern crabgrass [8] = test: Test Example 5: herbicidal effect by foliage application, plastic box (Table 20, symbol F); format: in vivo, southern crabgrass (Digitaria ciliaris); settings: foliage application, AAH 320 g/ha, three weeks after application
How it was run: (§4)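 Plants were sown into sterilized diluvial soil under about 1.5 cm cover and kept in a greenhouse at 25° C. to 30° C. Fourteen days on, foliage received an even spray of the diluted emulsion. Herbicidal or crop effect was judged three weeks afterwards.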

barnyard grass [9] = test: Test Example 5: herbicidal effect by foliage application, plastic box (Table 20, symbol H); format: in vivo, barnyard grass (Echinochloa crus-galli); settings: foliage application, AAH 320 g/ha, three weeks after application
How it was run: as §4

wild oat [10] = test: Test Example 5: herbicidal effect by foliage application, plastic box (Table 20, symbol I); format: in vivo, wild oat (Avena fatua); settings: foliage application, AAH 320 g/ha, three weeks after application
How it was run: as §4

blackgrass = test: Test Example 5: herbicidal effect by foliage application, plastic box (Table 20, symbol J); format: in vivo, blackgrass (Alopecurus myosuroides); settings: foliage application, AAH 320 g/ha, three weeks after application
How it was run: as §4

Italian ryegrass [11] = test: Test Example 5: herbicidal effect by foliage application, plastic box (Table 20, symbol K); format: in vivo, Italian ryegrass (Lolium multiflorum); settings: foliage application, AAH 320 g/ha, three weeks after application
How it was run: as §4

windgrass = test: Test Example 5: herbicidal effect by foliage application, plastic box (Table 20, symbol L); format: in vivo, windgrass (Apera spica-venti); settings: foliage application, AAH 320 g/ha, three weeks after application
How it was run: as §4

redroot pigweed [12] = test: Test Example 5: herbicidal effect by foliage application, plastic box (Table 20, symbol N); format: in vivo, redroot pigweed (Amaranthus retroflexus); settings: foliage application, AAH 320 g/ha, three weeks after application
How it was run: as §4

lambsquarters [13] = test: Test Example 5: herbicidal effect by foliage application, plastic box (Table 20, symbol O); format: in vivo, lambsquarters (Chenopodium album); settings: foliage application, AAH 320 g/ha, three weeks after application
How it was run: as §4

persian speedwell = test: Test Example 5: herbicidal effect by foliage application, plastic box (Table 20, symbol R); format: in vivo, Persian speedwell (Veronica persica); settings: foliage application, AAH 320 g/ha, three weeks after application
How it was run: as §4

Row | SMILES | herbicidal effect rating, A: late watergrass (late watergrass) | herbicidal effect rating, B: Japanese bulrush (Japanese bulrush) | herbicidal effect on H (barnyard grass), rating 0-5 (barnyard grass [1]) | herbicidal effect on E (rice flat sedge), rating 0-5 (rice flat sedge) | herbicidal effect rating, F: southern crabgrass (southern crabgrass [2]) | herbicidal effect rating, G: green foxtail (green foxtail) | herbicidal effect rating, H: barnyard grass (barnyard grass [3]) | herbicidal effect rating, I: wild oat (wild oat [4]) | herbicidal effect rating, K: Italian ryegrass (Italian ryegrass [5]) | herbicidal effect rating, M: velvetleaf (velvetleaf) | herbicidal effect rating, N: redroot pigweed (redroot pigweed [6]) | herbicidal effect rating, O: lambsquarters (lambsquarters [7]) | herbicidal effect rating, P: chickweed (chickweed) | F: southern crabgrass, herbicidal effect (southern crabgrass [8]) | H: barnyard grass, herbicidal effect (barnyard grass [9]) | I: wild oat, herbicidal effect (wild oat [10]) | J: blackgrass, herbicidal effect (blackgrass) | K: Italian ryegrass, herbicidal effect (Italian ryegrass [11]) | L: windgrass, herbicidal effect (windgrass) | N: redroot pigweed, herbicidal effect (redroot pigweed [12]) | other results
1 | Cc1nn(C)c(=O)c(-c2c(-c3ccc4c(c3)OCCO4)sc3ccccc23)c1OC(=O)SC(C)(C)C [1-092] | 3 (Herbicidal rate of 40% or more and less than 70%) | 1 (Herbicidal rate of 5% or more and less than 20%) | 4 (Herbicidal rate of 70% or more and less than 90%) | 5 (Herbicidal rate of 90% or more (almost completely withered)) | 0 (Herbicidal rate of 5% or less (almost no effect)) | 0 (Herbicidal rate of 5% or less (almost no effect)) | 0 (Herbicidal rate of 5% or less (almost no effect)) | 0 (Herbicidal rate of 5% or less (almost no effect)) | 0 (Herbicidal rate of 5% or less (almost no effect)) | 0 (Herbicidal rate of 5% or less (almost no effect)) | 0 (Herbicidal rate of 5% or less (almost no effect)) | 0 (Herbicidal rate of 5% or less (almost no effect)) | 0 (Herbicidal rate of 5% or less (almost no effect)) | 3 (Herbicidal rate of 40% or more and less than 70%) | 3 (Herbicidal rate of 40% or more and less than 70%) | 0 (Herbicidal rate of 5% or less (almost no effect)) | 0 (Herbicidal rate of 5% or less (almost no effect)) | 0 (Herbicidal rate of 5% or less (almost no effect)) | 0 (Herbicidal rate of 5% or less (almost no effect)) | 0 (Herbicidal rate of 5% or less (almost no effect)) | O: lambsquarters, herbicidal effect (lambsquarters [13]): 3 (Herbicidal rate of 40% or more and less than 70%); R: persian speedwell, herbicidal effect (persian speedwell): 5 (Herbicidal rate of 90% or more (almost completely withered))
2 | Cc1nn(C)c(=O)c(-c2c(-c3ccc4c(c3)CCO4)sc3ccccc23)c1O [1-101] | 3 (Herbicidal rate of 40% or more and less than 70%) | 5 (Herbicidal rate of 90% or more (almost completely withered)) | 5 (Herbicidal rate of 90% or more (almost completely withered)) | 5 (Herbicidal rate of 90% or more (almost completely withered)) | 3 (Herbicidal rate of 40% or more and less than 70%) | 5 (Herbicidal rate of 90% or more (almost completely withered)) | 5 (Herbicidal rate of 90% or more (almost completely withered)) | 0 (Herbicidal rate of 5% or less (almost no effect)) | 4 (Herbicidal rate of 70% or more and less than 90%) | 0 (Herbicidal rate of 5% or less (almost no effect)) | 4 (Herbicidal rate of 70% or more and less than 90%) | 5 (Herbicidal rate of 90% or more (almost completely withered)) | 5 (Herbicidal rate of 90% or more (almost completely withered)) | 5 (Herbicidal rate of 90% or more (almost completely withered)) | 4 (Herbicidal rate of 70% or more and less than 90%) | 3 (Herbicidal rate of 40% or more and less than 70%) | 4 (Herbicidal rate of 70% or more and less than 90%) | 4 (Herbicidal rate of 70% or more and less than 90%) | 5 (Herbicidal rate of 90% or more (almost completely withered)) | 4 (Herbicidal rate of 70% or more and less than 90%) | O: lambsquarters, herbicidal effect (lambsquarters [13]): 4 (Herbicidal rate of 70% or more and less than 90%); R: persian speedwell, herbicidal effect (persian speedwell): 5 (Herbicidal rate of 90% or more (almost completely withered))
3 | CCCC(=O)Oc1c(C)nn(C)c(=O)c1-c1c(-c2ccc3c(c2)CCO3)sc2ccccc12 [1-102] | 3 (Herbicidal rate of 40% or more and less than 70%) | 5 (Herbicidal rate of 90% or more (almost completely withered)) | 4 (Herbicidal rate of 70% or more and less than 90%) | 5 (Herbicidal rate of 90% or more (almost completely withered)) | 2 (Herbicidal rate of 20% or more and less than 40%) | 5 (Herbicidal rate of 90% or more (almost completely withered)) | 3 (Herbicidal rate of 40% or more and less than 70%) | 1 (Herbicidal rate of 5% or more and less than 20%) | 3 (Herbicidal rate of 40% or more and less than 70%) | 1 (Herbicidal rate of 5% or more and less than 20%) | 4 (Herbicidal rate of 70% or more and less than 90%) | 4 (Herbicidal rate of 70% or more and less than 90%) | 5 (Herbicidal rate of 90% or more (almost completely withered)) | 4 (Herbicidal rate of 70% or more and less than 90%) | 3 (Herbicidal rate of 40% or more and less than 70%) | 1 (Herbicidal rate of 5% or more and less than 20%) | 0 (Herbicidal rate of 5% or less (almost no effect)) | 3 (Herbicidal rate of 40% or more and less than 70%) | 0 (Herbicidal rate of 5% or less (almost no effect)) | 5 (Herbicidal rate of 90% or more (almost completely withered)) | O: lambsquarters, herbicidal effect (lambsquarters [13]): 4 (Herbicidal rate of 70% or more and less than 90%); R: persian speedwell, herbicidal effect (persian speedwell): 5 (Herbicidal rate of 90% or more (almost completely withered))
